Data: patent publication US4032525A, “Dibenz[b,f]oxepin derivatives” (Hoffmann-La Roche Inc., priority 1974, dated 1977)

What was measured:
[1] = test system: homovanillic acid; experiment: Determination of Homovanillic Acid (HVA) in rat brain; type: in vivo, rats; conditions: po, 2 h, read-out: Increase in HVA; for response vs control in vivo at 50 mg/kg: dose 50 mg/kg p.o.
[2] = in vivo; conditions: mouse, po
[3] = test system: rats; experiment: "Pole Climbing" Test (conditioned / unconditioned reaction); type: in vivo; conditions: for ED50: Rattus norvegicus, po, read-out: ED50 (blocking of the conditioned reaction); for ED50 / Quotient ED10 (blocking of the unconditioned reaction)/ED50 (blocking of the conditioned reaction): rats, p.o.; for Quotient ED10 (blocking of the unconditioned reaction)/ED50 (blocking of the conditioned reaction): larger quotient = greater selectivity of neuroleptic activity
Description: II. "Pole Climbing" Test This test provides information about behavior reactions of rats. Rats are trained to avoid, by climbing up a vertical pole in the test chamber, an electrical impulse-- unconditioned impulse-- released via the […] floor some seconds after an acoustic signal-- conditioned impulse. The blocking of the conditioned reaction is designated by the parameter ED50 (mg/kg. p.o.) and the blocking of the unconditioned reaction is designated by the parameter ED10 (mg/kg. p.o.). The parameter ED50 --blocking of the conditioned reaction-- provides a measure of the strength of the neuroleptic activity of the derivative under investigation.

[4] = Catalepsy Test; type: in vivo, rats; conditions: rat, in vivo, ip; rats, intraperitoneally; observed every 30 minutes for 6 hours; read-out: ED50 (dose at which 50% of the animals show catalepsy)
Procedure: (§1) A cataleptic activity-- "wax rigidity", i.e., abnormally long retention of a fixed body position--in central depressant or neuroleptically active compounds is considered to be an undesirable side-effect and is produced by motor disorders. Representative dibenz[b,f]oxepin derivatives provided by this invention were administered intraperitoneally to rats. The animals are considered to be cataleptic when the homolateral extremities remain in a crossed position for at least 10 seconds. The number of cataleptic animals is noted every 30 minutes for 6 hours. The ED50 is the dose at which 50% of the animals show catalepsy.

[5] = test system: rats; experiment: Catalepsy Test; type: in vivo; conditions: in words, relative to chlorpromazine
Procedure: as §1

[6] = rats killed two hours after dosing, untreated rats fixed at 100%
[7] = in words, relative to chlorpromazine

With Cc1ccc2c(c1)CC(N1CCN(C)CC1)c1cc(C)ccc1O2 (stereo not drawn) [A] as the compound, how does the response vs control in vivo at 2 mg/kg ([1]; dose 2 mg/kg p.o., rats killed two hours after dosing, untreated rats fixed at 100%) read?
Its response vs control in vivo at 2 mg/kg is 235%.

What about the LD50 at 24 h [2] of the same compound?
Its LD50 at 24 h is 900 mg/kg.

What about the ED50 [3] of the same compound?
Its ED50 is 3.2 mg/kg.

What about the “Quotient ED10 (blocking of the unconditioned reaction)/ED50 (blocking of the conditioned reaction)” value (“Quotient ED10” for short) [3] of the same compound?
Its value is 3.1.

For N#CCCN1CCN(C2Cc3cc(Cl)ccc3Oc3ccccc32)CC1 (stereo not drawn) [H], which ED50 at 6 h [4] is on record?
Its ED50 at 6 h is > 30 mg/kg.

What about the “cataleptic side-effect compared with chlorpromazine” value [5] of the same compound?
The value was “less than one fifth of the undesired cataleptic side-effect of chlorpromazine”.

What about the response vs control in vivo at 50 mg/kg [1, 6] of the same compound?
The response vs control in vivo at 50 mg/kg was 275%.

What about the LD50 at 24 h [2] of the same compound?
Its LD50 at 24 h is 1500 mg/kg.

And the ED50 [3]?
Its ED50 is 14 mg/kg.

What about the “neuroleptic strength of action compared with chlorpromazine” value [3, 7] of the same compound?
Its value is “somewhat lower than that of chlorpromazine”.

What about the “quality (selectivity) of the neuroleptic activity compared with chlorpromazine” value [3, 7] of the same compound?
The value was “this superiority is particularly evident”.

And the “Quotient ED10” value [3]?
The value was > 21.

Which results are given for Cc1ccc2c(c1)CC(N1CCN(CCN3CCOC3=O)CC1)c1cc(F)ccc1O2 (stereo not drawn) [F]?
ED50 at 6 h [4]: 30 mg/kg; cataleptic side-effect compared with chlorpromazine [5]: about one half to about one eighth of the undesired cataleptic side-effect of chlorpromazine; response vs control in vivo at 50 mg/kg [1, 6]: 265%; LD50 at 24 h [2]: 450 mg/kg; ED50 [3]: 7 mg/kg; Quotient ED10 (blocking of the unconditioned reaction)/ED50 (blocking of the conditioned reaction) [3]: 5.1

Which results are given for Cc1ccc2c(c1)CC(N1CCN(CCN3CCOC3=O)CC1)c1cc(C)ccc1O2 (stereo not drawn) [D]?
ED50 at 6 h [4]: 14 mg/kg; cataleptic side-effect compared with chlorpromazine [5]: about one half to about one eighth of the undesired cataleptic side-effect of chlorpromazine; response vs control in vivo at 15 mg/kg ([1]; dose 15 mg/kg p.o., rats killed two hours after dosing, untreated rats fixed at 100%): 335%; LD50 at 24 h [2]: 750 mg/kg; ED50 [3]: 7.6 mg/kg; Quotient ED10 (blocking of the unconditioned reaction)/ED50 (blocking of the conditioned reaction) [3]: 5.6

What does the source list for O=C1OCCN1CCN1CCN(C2Cc3cc(Cl)ccc3Oc3ccccc32)CC1 (stereo not drawn) [G]?
ED50 at 6 h [4]: 50 mg/kg; cataleptic side-effect compared with chlorpromazine [5]: about one half to about one eighth of the undesired cataleptic side-effect of chlorpromazine; response vs control in vivo at 50 mg/kg [1, 6]: 225%; LD50 at 24 h [2]: 450 mg/kg; ED50 [3]: 15.5 mg/kg; neuroleptic strength of action compared with chlorpromazine [3, 7]: somewhat lower than that of chlorpromazine; Quotient ED10 (blocking of the unconditioned reaction)/ED50 (blocking of the conditioned reaction) [3]: 3.5

With OCCCN1CCN(C2Cc3cc(Cl)ccc3Oc3ccccc32)CC1 (stereo not drawn) [B] as the compound, how does the response vs control in vivo at 3.5 mg/kg ([1]; dose 3.5 mg/kg p.o., rats killed two hours after dosing, untreated rats fixed at 100%) read?
The response vs control in vivo at 3.5 mg/kg was 260%.

And the LD50 at 24 h [2]?
The LD50 at 24 h was 375 mg/kg.

For O=C1OCCN1CCN1CCN(C2Cc3cc(Cl)ccc3Oc3ccc(F)cc32)CC1 (stereo not drawn) [E], which response vs control in vivo at 10 mg/kg ([1]; dose 10 mg/kg p.o., rats killed two hours after dosing, untreated rats fixed at 100%) is on record?
Its response vs control in vivo at 10 mg/kg is 260%.

And the LD50 at 24 h [2]?
The LD50 at 24 h was 900 mg/kg.

And the ED50 [3]?
The ED50 was 3.5 mg/kg.

And the “Quotient ED10” value [3]?
Its value is 2.8.

For O=C1OCCN1CCN1CCN(C2Cc3cc(Cl)ccc3Oc3ccc(Cl)cc32)CC1 (stereo not drawn) [C], which response vs control in vivo at 5 mg/kg ([1]; dose 5 mg/kg p.o., rats killed two hours after dosing, untreated rats fixed at 100%) is on record?
The response vs control in vivo at 5 mg/kg was 365%.

And the LD50 at 24 h [2]?
Its LD50 at 24 h is 900 mg/kg.

Which ED50 at 6 h [4] does the source give for CN(C)CCCN1c2ccccc2Sc2ccc(Cl)cc21 [Chlorpromazine, reference compound] here?
Its ED50 at 6 h is 6 mg/kg.

What about the response vs control in vivo at 20 mg/kg [1] of the same compound?
Its response vs control in vivo at 20 mg/kg is 320%.

And the “Quotient ED10” value [3]?
Its value is 2.5.
